Series [1] concerns rat uterine decidualization. Kind of series: Rat decidualization assay. It is filed as in vivo. To be noted: for EC50: s.c., half-maximal increase in decidual response (uterine wet weight), ovariectomized rats, individual studies. How it is done:
1. Rat Decidualization Assay
The animals are treated once daily for seven days.
Uteri are removed and trimmed of fat.
Decidual response: [(D-C)/C]×100%

Several values for one entry are separate records, joined by “and”; a condition that tells them apart may be missing. Equal entries are not always repeated.

As usually defined, the melting point is the temperature of the solid-liquid transition. `N#Cc1cc(-c2ccc3c(c2)C2(CCCC2)C(=O)N3)ccc1F` came in with a melting point of 264 to 266 °C.
Regarding `C#C[C@]1(O)CC[C@H]2[C@@H]3CCC4=CC(=O)CC[C@@H]4[C@H]3C(=C)C[C@@]21CC` [3-Ketodesogestrel], the EC50 in series [1] was 0.10 mg/kg and 0.06 mg/kg and 0.11 mg/kg.
The compound `O=C1Cc2cc(-c3cccc([N+](=O)[O-])c3)ccc2N1` [Example 1, 5-(3-Nitro-phenyl)-1,3-dihydro-indol-2-one] registered a melting point of 269 °C.
Still for that read-out and setting: then `CC1(C)C(=O)Nc2ccc(-c3cccc(Cl)c3)cc21` [Example 4, 5-(3-Chloro-phenyl)-3,3-dimethyl-1,3dihydro-indol-2-one], with 188 to 189 °C; and `CCC1C(=O)Nc2ccc(-c3cccc(Cl)c3)cc21` (stereo not shown) [Example 6, 5-(3-Chloro-phenyl)-3-ethyl-1,3dihydro-indol-2-one], with 118 to 120 °C.
The same measure, in the same setting: then `CCC1(CC)C(=O)Nc2ccc(-c3cccc(Cl)c3)cc21` [Example 7, 5-(3-Chloro-phenyl)-3,3-diethyl-1,3-dihydro-indol-2-one], with 195 to 197 °C.
Still for that read-out and setting: the same measure for `CC#CC1(OC)C(=O)Nc2ccc(-c3cccc(Cl)c3)cc21` (stereo not shown) [Example 9, 5-(3-Chloro-phenyl)-3-methoxy-3-prop-1-ynyl-1,3-dihydro-indol-2-one]: > 190 °C (dec.); for `O=C1Cc2cc(-c3cccc(Cl)c3)ccc2N1` [Example 10, 5-(3-Chloro-phenyl)-1,3-dihydro-indol-2-one]: 169 to 171 °C; for `O=C1Nc2ccc(-c3cccc(Cl)c3)cc2C12OCCO2` [Example 11, 5′-(3-Chlorophenyl)spiro[1,3-dioxolane-2,3′-[3H]indol]-2′(1′H)-one]: 159 to 161 °C.
`O=C1Nc2ccc(-c3cccc(Cl)c3)cc2C12OCCCO2` [Example 12, 5′-(3-Chlorophenyl)spiro[1,3-dioxane-2,3-[3H]indol]-2′(1′H)-one]: the melting point was 242 to 244 °C.
In turn, `O=C1Nc2ccc(-c3cccc([N+](=O)[O-])c3)cc2C12CCCC2` [Example 13, 5′-(3-nitrophenyl)spiro[cyclopentane-1,3′-[3H]indol]2′(1′H)-one] came in with a melting point of 238 to 240 °C.
Still for that read-out and setting: then `O=C1Nc2ccc(-c3ccc(F)c(Cl)c3)cc2C12CCCCC2` [Example 20, 5′-(3Chloro-4-fluorophenyl)spiro[cyclohexane-1,3′-[3H]indol]-2′(1′H)-one], with 188 to 189 °C; and `O=C1Nc2ccc(-c3cccc(F)c3)cc2C12CCCCC2` [Example 21, 5′-(3-Fluorophenyl)spiro[cyclohexane-1,3′-[3H]indol]-2′(1′H)-one], with 171 to 172 °C; and `O=C1Nc2ccc(-c3cc(F)cc(F)c3)cc2C12CCCCC2` [Example 22, 5′-(3,5-Difluorophenyl)spiro[cyclohexane1,3′-[3H]indol]-2′(1′H)-one], with 180 to 183 °C.
On the same count and under the same terms, then `O=C1Nc2ccc(-c3cc(F)cc(Cl)c3)cc2C12CCCCC2` [Example 27, 5′-(3-Chloro-5-fluorophenyl)spiro[cyclohexane-1,3′-[3H]indol]-2′(1′H)-one], with 178 to 180 °C.
The same measure, in the same setting: then `O=C1Nc2ccc(-c3cccc([N+](=O)[O-])c3)cc2C12CCCCC2` [Example 30, 5′-(3-Nitrophenyl)spiro[cyclohexane-1,3′-[3H]indol]-2′(1′H)-one], with 196 to 198 °C; and `N#Cc1csc(-c2ccc3c(c2)C2(CCCCC2)C(=O)N3)c1` [Example 38, 5-(1′,2′-Dihydro-2′-oxospiro[cyclohexane-1,3′-[3H]indol]-5′-yl)-thiophene-3-carbonitrile], with 188 to 190 °C; and `N#Cc1coc(-c2ccc3c(c2)C2(CCCCC2)C(=O)N3)c1` [Example 40, 5-(1′,2′-Dihydro-2′-oxospiro[cyclohexane-1,3′-[3H]indol]-5′-yl)-3-furancarbonitrile], with 243 to 245 °C.
Take `Cn1c(-c2ccc3c(c2)C2(CCCCC2)C(=O)N3)ccc1[N+](=O)[O-]` [Example 45, 5′-(5-Nitro-1-methyl-pyrrol-2-yl)spiro[cyclohexane-1,3′-[3H]indol]-2′(1′H)-one]: the melting point amounted to 210 °C.
Same read-out and setting: then `O=C1Nc2ccc(-c3cccc4[nH]ccc34)cc2C12CCCCC2` [Example 46, 5′-(1H-Indol-4-yl)spiro[cyclohexane-1,3′-[3H]indol]-2′(1′H)-one], with 211 to 213 °C.
Consider `N#Cc1cccc(-c2ccc3c(c2)C2(CCCCC2)C(=O)N3)c1` [Example 47], for which the melting point lay within 190 to 191 °C. For the same compound, the inhibition in vivo at 10 mg/kg in series [1] (@ 10 mg/kg, rat decidualization, antiprogestational mode, read-out: Decid. IC50 mg/kg) came out at 50%.
The compound `N#Cc1cc(F)cc(-c2cc(Br)c3c(c2)C2(CCCCC2)C(=O)N3)c1` [Example 51, 3-(7′-Bromo-1′,2′-dihydro-2′-oxospiro[cyclohexane-1,3′-[3H]indol]-5′-yl)-5-fluoro-benzonitrile] returned a melting point of 217 °C.
On to `N#Cc1cc(F)cc(-c2cc([N+](=O)[O-])c3c(c2)C2(CCCCC2)C(=O)N3)c1` [Example 52, 3-(7′-Nitro-1′,2′-dihydro-2′-oxospiro[cyclohexane-1,3′-[3H]indol]-5′-yl)-5-fluoro-benzonitrile], for which the melting point came to 196 °C.
As for `N#Cc1cc(F)cc(-c2cc(N)c3c(c2)C2(CCCCC2)C(=O)N3)c1` [Example 53, 3-(7′-Amino-1′,2′-dihydro-2′-oxospiro[cyclohexane-1,3′-[3H]indol]-5′-yl)-5-fluoro-benzonitrile], the melting point was 241 to 243 °C.
Still for that read-out and setting: then `Cc1c(-c2ccc3c(c2)C2(CCCCC2)C(=O)N3)sc2ccc(Cl)cc12` [Example 58, 5′-(5-Chloro-3-methylbenzo[b]thien-2-yl)spiro[cyclo-hexane-1,3′-[3H]indol]-2′(1′H)-one], with 256 to 258 °C.
Compound `N#Cc1ccc(-c2ccc3c(c2)C2(CCCCC2)C(=O)N3)cc1F` [Example 63, 5′-(4-Cyano-3-fluorophenyl)-spiro[cyclohexane-1,3′-[3H]indol]-2′(1′H)-one] had a melting point of 258 to 260 °C.
Same read-out and setting: then `CC1(C)C(=O)Nc2ccc(-c3ccc(F)c(Cl)c3)cc21` [Example 66, 5-(3-Chloro-4-fluoro-phenyl)-3,3-dimethyl1,3-dihydro-indol-2-one], with 206.5 to 207.8 °C; and `CC1(C)C(=O)Nc2ccc(-c3cccc(C#N)c3)cc21` [Example 67, 3-(3,3-Dimethyl-2-oxo-2,3-dihydro-1H-indol-5-yl)-benzonitrile], with 200.2 to 202 °C; and `Cc1cc(C#N)sc1-c1ccc2c(c1)C(C)(C)C(=O)N2` [Example 69, 5(3,3-Dimethyl-2-oxo-2,3dihydro-1H-indol-5-yl)-4methyl thiophene-2-carbonitrile], with 192.3 to 193 °C.
Same read-out and setting: then `CC1(C)C(=O)Nc2ccc(-c3cc(F)cc(Cl)c3)cc21` [Example 70, 5-(3-Chloro-5-fluoro-phenyl)-3,3-dimethyl-1,3-dihydro-indol-2-one], with 205.9 to 206.8 °C; and `CC1(C)C(=O)Nc2ccc(-c3cc(F)cc([N+](=O)[O-])c3)cc21` [Example 71, 5-(3-Fluoro-5-nitro-phenyl)-3,3-dimethyl-1,3-dihydro-indol-2-one], with 231.2 to 232.7 °C; and `CC1(C)C(=O)Nc2ccc(-c3coc(C#N)c3)cc21` [Example 72, 4-(3,3-Dimethyl-2-oxo-2,3-dihydro-1H-indol-5-yl)-furan-2-carbonitrile], with 199.6 to 201.4 °C.
For `Cc1cc(C#N)sc1-c1ccc2c(c1)C1(CCCC1)C(=O)N2` [Example 73], the “Decid. IC50 mg/kg” value in series [1] (@ 3 mg/kg, rat decidualization, antiprogestational mode) was 50% @ 3.
`O=C1Nc2ccc(-c3ccc(F)c(Cl)c3)cc2C12CCCC2` [Example 76, 5′-(3-Chloro-4fluorophenyl)-spiro[cyclopentane-1,3′-[3H]indol]-2′(1′H)-one] came in with a melting point of 202 to 204 °C.
Take `N#Cc1cc(F)cc(-c2ccc3c(c2)C2(CCCC2)C(=O)N3)c1` [Example 80, 5′-(3-Cyano-5-fluorophenyl)-spiro[cyclopentane-1,3′-[3H]indol]-2′(1′H)-one]: in series [1] (@ 3 mg/kg, rat decidualization, antiprogestational mode, read-out: Decid. IC50 mg/kg), the inhibition in vivo at 3 mg/kg was determined as 70%.
As for `CC1(C)C(=O)Nc2ccc(-c3ccc([N+](=O)[O-])s3)cc21` [Example 83, 3,3-Dimethyl-5-(5-nitro-thiophene-2-yl)-1,3-dihydro-indol-2-one], the melting point lay within 223 to 225 °C.
Still for that read-out and setting: the same measure for `CC(C)(C)OC(=O)n1cccc1-c1ccc2c(c1)C(C)(C)C(=O)N2` [Example 84, 2-(3,3-Dimethyl-2-oxo-2,3-dihydro-1H-indol-5yl)-pyrrole-1-carboxylic acid tert-butyl ester]: 168.4 to 170.2 °C; for `CC1(C)C(=O)Nc2ccc(C3([N+](=O)[O-])C=CC=N3)cc21` (stereo not shown) [Example 85, 2-(3,3-Dimethyl-2-oxo-2,3-dihydro-1H-indol-5-yl)-2-nitro-pyrrole]: 293.9 to 294.2 °C (dec.).
Same read-out and setting: the same measure for `CC1(C)C(=O)Nc2ccc(-c3ccc(C#N)s3)cc21` [Example 86, 5-(3,3-Dimethyl-2-oxo-2,3-dihydro-1H-indol-5-yl)-thiophene2-carbonitrile]: 255 to 256 °C; for `CC1(C)C(=O)Nc2ccc(-c3cccc(C#N)c3F)cc21` [Example 87, 3(3,3-Dimethyl-2-oxo-2,3-dihydro-1H-indol-5-yl)-2-fluoro-benzonitrile]: 270 to 272 °C.
On to `C#C[C@]1(O)CC[C@H]2[C@@H]3CCC4=CC(=O)CC[C@@H]4[C@H]3CC[C@@]21CC` [Levonorgestrel], for which the EC50 in series [1] was 0.08 mg/kg and 0.12 mg/kg and 0.09 mg/kg (2×).
As for `CC#C[C@]1(O)CC[C@H]2[C@@H]3CCC4=CC(=O)CCC4=C3[C@@H](c3ccc(N(C)C)cc3)C[C@@]21C` [RU486], the IC50 in series [1] (p.o., half-maximal decrease in EC50 progesterone induced decidual response, rats) is 0.21 mg/kg and 0.14 mg/kg.

These data come from US6391907B1, “Indoline derivatives” (American Home Products Corporation, priority 1999, dated 2002).
